Drawing on PubChem BioAssay (NCI), this text covers GI50 and TGI for eight compounds.

Among the test systems are 786-0 renal; SNB-75 CNS; KM12 colon; MDA-MB-231 breast; SK-OV-3 ovarian; OVCAR-5 ovarian; SK-MEL-5 melanoma; HCC-2998 colon; OVCAR-3 ovarian; IGROV1 ovarian.
Assay in all cases: DTP human tumour cell line panel, 48 h

“And” between values parts separate entries of the source, which are not always exact repeats. Equal entries are not always repeated.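 Briefly, cells in 96-well plates were exposed to five compound concentrations for 48 h, and endpoints were estimated by linear interpolation. The concentration for 50% growth inhibition is given as GI50. TGI: concentration producing complete growth inhibition.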

As for `OCCN1CCN(CCCN2c3ccccc3Sc3ccc(Cl)cc32)CC1`, the GI50 (usually the concentration that inhibits growth by half) is 1.87 µM in the experiment on 786-0 renal; 3.97 µM in the experiment with SNB-75 CNS; 1.91 µM in the experiment with KM12 colon; 1.99 µM in the experiment with MDA-MB-231 breast; 3.04 µM with SK-OV-3 ovarian; 3.12 µM in the experiment with OVCAR-5 ovarian. The GI50 in the experiment on SK-MEL-5 melanoma is 1.65 µM; in the experiment on HCC-2998 colon it was 1.5 µM; in the experiment on OVCAR-3 ovarian, 2.59 µM; in the experiment with IGROV1 ovarian, 3.12 µM. Also, the total growth inhibition concentration (TGI) (in general, the concentration at which net growth stops) was determined as 3.98 µM with 786-0 renal; 15.6 µM in the experiment with SNB-75 CNS; 3.69 µM with KM12 colon; 4.78 µM in the experiment on MDA-MB-231 breast; 10.2 µM in the experiment on SK-OV-3 ovarian; 12.1 µM in the experiment with OVCAR-5 ovarian. Further, the TGI came out at 3 µM with SK-MEL-5 melanoma, 2.98 µM in the experiment on HCC-2998 colon, 6.73 µM with OVCAR-3 ovarian and 12.2 µM with IGROV1 ovarian.
Regarding `COc1ccc2c(c1)/C(=C\c1c(-c3cc(OC)ccc3OC)nc3sc(C)cn13)C(=O)N2C`, the GI50 is 31.1 µM in the experiment with 786-0 renal; 6.68 µM in the experiment on SNB-75 CNS; 37.7 µM in the experiment with KM12 colon; 16.7 µM in the experiment on MDA-MB-231 breast; 28 µM in the experiment on SK-OV-3 ovarian; 55.7 µM in the experiment with OVCAR-5 ovarian. Also, the GI50 is 20.9 µM in the experiment with SK-MEL-5 melanoma, 59.7 µM in the experiment with HCC-2998 colon, 15.6 µM in the experiment on OVCAR-3 ovarian and 19.4 µM in the experiment with IGROV1 ovarian. Besides, the TGI is above 100 µM with 786-0 renal; 45.9 µM with SNB-75 CNS; above 100 µM with KM12 colon; 96.7 µM in the experiment with MDA-MB-231 breast; above 100 µM with SK-OV-3 ovarian; above 100 µM with OVCAR-5 ovarian. In addition, the TGI in the experiment on SK-MEL-5 melanoma is 65.4 µM; in the experiment with HCC-2998 colon, above 100 µM; in the experiment with OVCAR-3 ovarian it was 54.5 µM; with IGROV1 ovarian, above 100 µM.
On to `CCOC(=O)C1Cc2c(cc3c4c(cccc24)N(C(C)=O)C3)N(C)C1` (centres undefined), for which the TGI in the experiment on 786-0 renal is above 100 µM; with SNB-75 CNS, above 100 µM; in the experiment on KM12 colon, above 100 µM; in the experiment on MDA-MB-231 breast it was 5.71 µM; with SK-OV-3 ovarian, above 100 µM; in the experiment on OVCAR-5 ovarian, above 100 µM. Besides, the TGI in the experiment on SK-MEL-5 melanoma is above 100 µM; in the experiment with HCC-2998 colon it was above 100 µM; in the experiment with OVCAR-3 ovarian, 3.27 µM; in the experiment on IGROV1 ovarian it was above 100 µM.
Take `COc1cc2c(cc1OC)[C@@H](Nc1ccc(C#N)cc1)C1COC(=O)[C@@H]1C2c1cc(OC)c(O)c(OC)c1` (some centres undefined): the total growth inhibition concentration (TGI) in the experiment on 786-0 renal was 2.76 µM; with SNB-75 CNS it was 4 µM and 2.11 µM; with MDA-MB-231 breast, 6.67 µM; in the experiment with OVCAR-5 ovarian, 95 µM and > 100 µM; in the experiment on SK-MEL-5 melanoma it was 14.3 µM and 2.53 µM; in the experiment with OVCAR-3 ovarian it was 20 µM and 28.4 µM. In the experiment on IGROV1 ovarian, the TGI was 95 µM and > 100 µM. In addition, the GI50 in the experiment with KM12 colon was 1.43 µM; with SK-OV-3 ovarian it was 0.195 µM and 0.548 µM; in the experiment with OVCAR-5 ovarian it was 0.545 µM and 2.05 µM; in the experiment with SK-MEL-5 melanoma, 0.499 µM and 0.292 µM; in the experiment with HCC-2998 colon, 0.665 µM and 2.72 µM; with OVCAR-3 ovarian it was 3.26 µM and 5.65 µM. Moreover, the GI50 in the experiment with IGROV1 ovarian is 7.06 µM and 5.07 µM.
`CCOC(=O)c1ccc(NC(=O)Nc2nncs2)cc1`: the GI50 is 0.474 µM in the experiment with 786-0 renal; 0.0832 µM in the experiment with SNB-75 CNS; 0.136 µM with KM12 colon; 0.532 µM with MDA-MB-231 breast; 0.178 µM in the experiment with SK-OV-3 ovarian; 0.78 µM in the experiment on OVCAR-5 ovarian. Besides, the 50% growth inhibitory concentration (GI50) is 0.0672 µM with SK-MEL-5 melanoma, 0.571 µM in the experiment with HCC-2998 colon, 0.0963 µM in the experiment on OVCAR-3 ovarian and 0.374 µM in the experiment on IGROV1 ovarian. In addition, the concentration for total growth inhibition (TGI) is 14.5 µM in the experiment on 786-0 renal; 19.3 µM in the experiment on SNB-75 CNS; 11.8 µM in the experiment with KM12 colon; 6.35 µM with MDA-MB-231 breast; 3.11 µM in the experiment on SK-OV-3 ovarian; above 100 µM in the experiment on OVCAR-5 ovarian. Further, the total growth inhibition concentration (TGI) in the experiment with SK-MEL-5 melanoma came out at 5.16 µM; in the experiment on HCC-2998 colon it was 8.24 µM; with OVCAR-3 ovarian it was 0.415 µM; in the experiment on IGROV1 ovarian it was 14.8 µM.
Take `Cc1cc2nc3c4cc(O)ccc4n(CCN(C)C)c3nc2cc1C`: the GI50 with 786-0 renal was 0.929 µM; in the experiment with SNB-75 CNS it was 0.229 µM; in the experiment with KM12 colon, 1.38 µM; in the experiment on MDA-MB-231 breast, 0.898 µM; with SK-OV-3 ovarian it was 1.8 µM; in the experiment with OVCAR-5 ovarian it was 0.953 µM. Besides, the GI50 in the experiment with SK-MEL-5 melanoma is 1.59 µM; with HCC-2998 colon, 1.71 µM; in the experiment with OVCAR-3 ovarian, 1.77 µM; in the experiment on IGROV1 ovarian, 0.474 µM. Besides, the total growth inhibition concentration (TGI) was 2.42 µM with 786-0 renal; 2.92 µM in the experiment with SNB-75 CNS; 7.8 µM in the experiment on KM12 colon; 5.71 µM in the experiment with MDA-MB-231 breast; above 61 µM in the experiment with SK-OV-3 ovarian; 4.46 µM in the experiment on OVCAR-5 ovarian. Moreover, the TGI in the experiment with SK-MEL-5 melanoma is 2.97 µM; in the experiment on HCC-2998 colon it was 4.71 µM; in the experiment with OVCAR-3 ovarian, 8.19 µM; with IGROV1 ovarian, 2.89 µM.
In the case of `COc1cc(/C=C\c2cc(OC)c(OC)c(OC)c2)cc(N/C=C\C(=O)c2ccc(OC(F)(F)F)cc2)c1OC`, the GI50 in the experiment on 786-0 renal is 4.34 µM; in the experiment on SNB-75 CNS, 2.65 µM; in the experiment with KM12 colon, 3.69 µM; in the experiment on MDA-MB-231 breast, 3 µM; in the experiment on SK-OV-3 ovarian, 5.38 µM; in the experiment with OVCAR-5 ovarian it was 8.2 µM. Further, the GI50 with SK-MEL-5 melanoma was 3.74 µM; with HCC-2998 colon, 3.71 µM; in the experiment with OVCAR-3 ovarian, 3.48 µM; in the experiment on IGROV1 ovarian, 7.06 µM. Further, the TGI in the experiment with 786-0 renal was above 100 µM; with SNB-75 CNS, 24 µM; in the experiment on KM12 colon, above 100 µM; with MDA-MB-231 breast, 14.5 µM; in the experiment with SK-OV-3 ovarian, above 100 µM; in the experiment with OVCAR-5 ovarian it was above 100 µM. Also, the TGI in the experiment on SK-MEL-5 melanoma is above 100 µM; in the experiment with HCC-2998 colon, above 100 µM; with OVCAR-3 ovarian, 10.6 µM; with IGROV1 ovarian it was above 100 µM.
On to `CC(C)(CN1CCCCC1)C(=O)/C=C/c1ccc(/C=C/C(=O)C(C)(C)CN2CCCCC2)cc1`, for which the TGI was 2.79 µM in the experiment on 786-0 renal; 1.82 µM in the experiment with SNB-75 CNS; 1.35 µM in the experiment with KM12 colon; 0.476 µM in the experiment on MDA-MB-231 breast; 2.91 µM in the experiment with SK-OV-3 ovarian; 1.57 µM with OVCAR-5 ovarian. Also, the TGI with SK-MEL-5 melanoma amounted to 1.98 µM; in the experiment with HCC-2998 colon, 1.07 µM; with OVCAR-3 ovarian, 1.17 µM; in the experiment on IGROV1 ovarian, 1.52 µM.
